The results in this text go back to US9725460B2, “Oridonin analogs, compositions, and methods related thereto” (THE BOARD OF REGENTS OF THE UNIVERSITY OF TEXAS SYSTEM, priority 2013, dated 2017).

Molecules are shown by their SMILES. Read-outs that look alike come from different tables or passages of the source. Where only a bound is given, the exact number is not on record here.

What is called IC50 is the point on the concentration scale where inhibition reaches its midpoint.

Common to all, as to conditions: Homo sapiens
One assay relates to MCF-7. The assay is described as follows: MTT cancer cell proliferation assay, MCF-7. The assay is classed as cell-based, human. The method, then:
(§1) In Vitro Determination of Effects of Synthesized Diterpenoids on Cancer Cell Proliferation. Breast cancer cell lines MCF-7, MDA-MB-231, […] and MCF/ADR were seeded in 96-well plates at a density of 1×10^4 cells/well and treated with DMSO and 0.01, 0.1, 1, 5, 10, and 100 μM of individual compound for 48 h, and then 20 μL of 3-(4,5-dimethylthiazol-2-yl)-2,5-diphenyltetrazolium bromide (MTT) (5 mg/mL in PBS) was added to each well and further incubated for another 4 h. Then MTT solution was removed, and 150 μL of DMSO was added to each well. Absorbance of all wells was determined by measuring OD at 550 nm after a 10 min incubation on a 96-well GlowMaxate absorbance reader (Promega, Madison, Wis.). Each individual compound was tested in quadruplicate wells for each concentration.
(§2) The growth inhibitory effects of the newly generated pyran-fused diterpenoids were evaluated in four breast cancer cell lines MCF-7 (ER-positive), MDAMB-231 (ER-negative and triple-negative), MDA-MB-468 (ER-negative and triple-negative) as well as MCF-7/ADR (adriamycin-resistant) using MTT assays as described in the Experimental Section.

For a further assay, the system named is MDA-MB-231. The assay is described as follows: MTT cancer cell proliferation assay, MDA-MB-231. It is filed as cell-based, human. As for the experimental part: as §1, §2
The next assay concerns AsPC1. The assay is described as follows: Cancer cell proliferation assay, AsPC1. The assay is classed as cell-based. As for the experimental part: (§3) In Vitro Determination of Effects of Synthesized Diterpenoids on Cancer Cell Proliferation. […] Then MTT solution was removed, and 150 μL of DMSO was added to each well. Absorbance of all wells was determined by measuring OD at 550 nm after a 10 min incubation on a 96-well GlowMaxate absorbance reader (Promega, Madison, Wis.). Each individual compound was tested in quadruplicate wells for each concentration.

Another assay deals with Panc-1. The experiment in a line: Cancer cell proliferation assay, Panc-1. The assay is classed as cell-based. As for the experimental part:
as §3

The mark [1] stands for this setting: MCF7, read-out: IC50 (μM) MCF-7.
Setting [2] is: MDA-MB-231, read-out: IC50 (μM) MDA-MB-231.
[3] abbreviates: ASPC1, read-out: IC50 (μM) AsPC1.
The mark [4] stands for this setting: PANC-1, read-out: IC50 (μM) Panc-1.
[5] abbreviates: MCF7, Table 2a, A-ring modified analogues, read-out: IC50 (μM) MCF-7.
[6] abbreviates: MDA-MB-231, Table 2a, A-ring modified analogues, read-out: IC50 (μM) MDA-MB-231.
Where [7] appears, read: ASPC1, Table 2a, A-ring modified analogues, read-out: IC50 (μM) AsPC1.
Setting [8] is: PANC-1, Table 2a, A-ring modified analogues, read-out: IC50 (μM) Panc-1.
Where [9] appears, read: MCF7, Table 1b, triazole substituted analogues, mean of three experiments, read-out: IC50 (μM) MCF-7.
Where [10] appears, read: MDA-MB-231, Table 1b, triazole substituted analogues, mean of three experiments, read-out: IC50 (μM) MDA-MB-231.
Where [11] appears, read: MCF7, read-out: Antiproliferative effect MCF-7 (IC50).
[12] abbreviates: MDA-MB-231, read-out: Antiproliferative effect MDA-MB-231 (IC50).

In the case of `C=C1C(=O)[C@]23[C@H](O)[C@H]1CC[C@H]2[C@]12C=CCC(C)(C)[C@H]1[C@H](O)[C@@]3(O)OC2` [CYD-6-82, (4aR,5S,6S,6aR,9S,11aS,11bR,14R)-5,6,14-trihydroxy-4,4-dimethyl-8-methylene-4,4a,5,6,9,10,11,11a-octahydro-3H-6,11b-(epoxymethano)-6a,9-methanocyclohepta[a]naphthalen-7(8H)-one], the IC50 is 0.79 µM in the assay with MCF-7 (setting [1]), 3.9 µM in the assay on MDA-MB-231 (setting [2]), 1.09 µM in the assay on AsPC1 (setting [3]) and 1.19 µM with Panc-1 (setting [4]).

For the compound `C=C1C(=O)[C@@]23[C@@H]4OC(C)(C)OC25OC[C@]2(C=C[C@H](O)C(C)(C)[C@H]2[C@@H]5O)[C@@H]3CC[C@@H]14` [CYD-6-81, (3S,3aR,3a^1R,6aR,7S,7aS,9S,11aR,11bS)-7,9-dihydroxy-5,5,8,8-tetramethyl-15-methylene-2,3,3a,7,7a,8,9,11b-octahydro-1H-6a,11a-(epoxymethano)-3,3a^1-ethanophenanthro[1,10-de][1,3]dioxin-14-one], the concentration for half-maximal inhibition (IC50) with MCF-7 (setting [5]) is 2.56 µM; with MDA-MB-231 (setting [6]), 10.5 µM; in the assay on AsPC1 (setting [7]), more than 10 µM; in the assay with Panc-1 (setting [8]), 5.24 µM.

As to `C=C1C(=O)[C@]23[C@H](O)[C@H]1CC[C@H]2[C@@]12COC3(O)[C@@H](O)[C@@H]1C(C)(C)CC13CC[C@]4(CC(C)(C)[C@H]5[C@H](O)[C@]6(O)OC[C@]5(C4=O)[C@@H]4CC[C@H]5C(=C)C(=O)[C@]46[C@@H]5O)OC12O3` (stereo partly drawn) [CYD-6-39, (2R,4aR,4a′R,5′S,6aR,6′S,6a′R,7S,8S,8aR,9′S,11S,11a′S,11b′S,13aS,13bS,13cR,14′R,17R)-5′,6′,7,8,14′,17-hexahydroxy-4′,4′,6,6-tetramethyl-8′,10-dimethylenehexadecahydro-3H-spiro[4a,13c-epoxy-8,13b-(epoxymethano)-8a,11-methanocyclohepta[3,4]benzo[1,2-h]chromene-2,2′-6,11b-(epoxymethano)-6a,9-methanocyclohepta[a]naphthalene]-1′,7′,9(3′H,4H,5H,8′H,10H)-trione], the 50% inhibitory concentration (IC50) is more than 10 µM in the assay on MCF-7 (setting [5]), more than 10 µM in the assay with MDA-MB-231 (setting [6]), 104 µM with AsPC1 (setting [7]) and more than 10 µM in the assay with Panc-1 (setting [8]).

`C=C1C(=O)[C@@]23[C@@H]4OC(C)(C)OC25OC[C@]2(C(=O)/C(=C\N(C)C)CC(C)(C)[C@H]2[C@@H]5O)[C@@H]3CC[C@@H]14` [CYD-6-77, (3S,3aR,3a^1R,6aR,7S,7aR,11aS,11bS,Z)-10-((dimethylamino)methylene)-7-hydroxy-5,5,8,8-tetramethyl-15-methyleneoctahydro-1H-6a,11a-(epoxymethano)-3,3a^1-ethanophenanthro[1,10-de][1,3]dioxine-11,14(2H)-dione]: the IC50 with MCF-7 (setting [1]) was 9.07 µM; in the assay with MDA-MB-231 (setting [2]) it was 165 µM; in the assay on AsPC1 (setting [3]) it was 11.8 µM; with Panc-1 (setting [4]), more than 10 µM.

In the case of `C=C1C(=O)[C@@]23[C@@H]4OC(C)(C)OC25OC[C@]2([C@H](O)[C@@H](n6cc(-c7ccc(C(C)(C)C)cc7)nn6)CC(C)(C)[C@H]2[C@@H]5O)[C@@H]3CC[C@@H]14` [CYD-8-3], the IC50 in the assay on MCF-7 (setting [9]) is 2 µM; in the assay on MDA-MB-231 (setting [10]), 1.1 µM.

Take `C=C1C(=O)[C@]23[C@H](O)[C@H]1CC[C@H]2[C@@]12COC3(O)[C@@H](O)[C@@H]1C(C)(C)C[C@H](n1cc(-c3ccc(C(C)(C)C)cc3)nn1)[C@H]2O` [CYD-8-5]: the IC50 in the assay with MCF-7 (setting [9]) is 1.9 µM; with MDA-MB-231 (setting [10]) it was 3.5 µM.

On to `C=C1C(=O)[C@]23[C@H](O)[C@H]1CC[C@H]2[C@]12C=CC(=O)C(C)(C)[C@H]1[C@H](O)[C@@]3(O)OC2` [CYD-6-93, (4aS,5S,6S,6aR,9S,11aS,11bR,14R)-5,6,14-trihydroxy-4,4-dimethyl-8-methylene-4,4a,5,6,9,10,11,11a-octahydro-3H-6,11b-(epoxymethano)-6a,9-methanocyclohepta[a]naphthalene-3,7(8H)-dione], for which the half-maximal inhibitory concentration (IC50) in the assay with MCF-7 (setting [11]) worked out at 3.48 ± 2.16 µM; with MCF-7 (setting [1]), 0.71 µM; in the assay on MDA-MB-231 (setting [12]) it was 9.39 ± 0.48 µM; with MDA-MB-231 (setting [2]), 10.3 µM; in the assay on AsPC1 (setting [3]) it was 10.2 µM; with Panc-1 (setting [4]), 9.67 µM.

In the case of `C=C1C(=O)[C@]23[C@H](O)[C@H]1CC[C@H]2[C@]12C=C[C@@H](n4cc(-c5ccccc5)nn4)C(C)(C)[C@H]1[C@H](O)C3(O)OC2` [CYD-7-82], the values for the IC50 in the assay with MCF-7 (setting [9]) and in the assay with MDA-MB-231 (setting [10]) were 2.3 µM and 1.8 µM, respectively.

Take `C=C1C(=O)[C@@]23C(=O)[C@@H](O)[C@@H]4C(C)(C)[C@@H]5OC[C@]4(C(=O)/C5=C\O)[C@@H]2CC[C@@H]1[C@H]3O` [CYD-7-5]: the IC50 in the assay with MCF-7 (setting [11]) was more than 30 µM; in the assay on MCF-7 (setting [1]), more than 10 µM; in the assay on MDA-MB-231 (setting [12]) it was more than 30 µM; with MDA-MB-231 (setting [2]), more than 10 µM; in the assay with AsPC1 (setting [3]) it was more than 10 µM; with Panc-1 (setting [4]) it was more than 10 µM.

For `C=C1C(=O)[C@]23[C@H](O)[C@H]1CC[C@H]2[C@]12C=C[C@H](O)C(C)(C)[C@H]1[C@H](O)[C@@]3(O)OC2` [CYD-6-90, (3S,4aS,5S,6S,6aR,9S,11aS,11bR,14R)-3,5,6,14-tetrahydroxy-4,4-dimethyl-8-methylene-4,4a,5,6,9,10,11,11a-octahydro-3H-6,11b-(epoxymethano)-6a,9-methanocyclohepta[a]naphthalen-7(8H)-one], the IC50 in the assay on MCF-7 (setting [5]) is 1.21 µM; with MDA-MB-231 (setting [6]), 26.1 µM; with AsPC1 (setting [7]), more than 10 µM; with Panc-1 (setting [8]) it was more than 10 µM.

As for `C=C1C(=O)[C@]23[C@H](O)[C@H]1CC[C@H]2[C@@]12COC3(O)[C@@H](O)[C@@H]1C(C)(C)CC1=C2O[C@]2(CC1)CC(C)(C)[C@H]1[C@H](O)[C@]3(O)OC[C@]1(C2=O)[C@@H]1CC[C@H]2C(=C)C(=O)[C@]13[C@@H]2O` [CYD-5-40-2, (2R,4aR,5S,6S,6aR,6a′R,7′S,8′S,8a′R,9S,11aS,11bS,11′S,13a′S,13b′S,14R,16′R)-5,6,7′,8′,14,16′-hexahydroxy-4,4,6′,6′-tetramethyl-8,10′-dimethylene-4,4a,5,6,6′,6a′,7′,8′,9,10,11,11a,11′,12′,13′,13a′-hexadecahydro-3′H-spiro[6,11b-(epoxymethano)-6a,9-methanocyclohepta[a]naphthalene-2,2′-8,13b-(epoxymethano)-8a,11-methanocyclohepta[3,4]benzo[1,2-h]chromene]-1,7,9′(3H,4′H,5′H,8H,10′H)-trione], the IC50 with MCF-7 (setting [1]) was determined as 4.82 µM; in the assay on MDA-MB-231 (setting [2]) it was 9.64 µM; in the assay on AsPC1 (setting [3]), 10.2 µM; with Panc-1 (setting [4]), 8.07 µM.

On to `C=C1C(=O)[C@@]23C(=O)[C@@H](O)[C@@H]4C(C)(C)[C@@H]5OC[C@]4(C(=O)/C5=C/OC)[C@@H]2CC[C@@H]1[C@H]3O` [CYD-7-13], for which the IC50 in the assay on MCF-7 (MCF7, Table 1c, dienone analogues, mean ± SE of three experiments, read-out: Antiproliferative effect MCF-7 (IC50)) is 10.2 ± 3.07 µM; with MDA-MB-231 (MDA-MB-231, Table 1c, dienone analogues, mean ± SE of three experiments, read-out: Antiproliferative effect MDA-MB-231 (IC50)), more than 30 µM.

In the case of `C=C1C(=O)[C@]23[C@H](O)[C@H]1CC[C@H]2[C@@]12COC3(O)[C@@H](O)[C@@H]1C(C)(C)C=C[C@@H]2n1cc(-c2ccccc2)nn1` [CYD-7-90], the 50% inhibitory concentration (IC50) stood at 2.1 µM in the assay on MCF-7 (setting [9]) and 1.8 µM in the assay with MDA-MB-231 (setting [10]).

On to `C=C1C(=O)[C@@]23[C@@H]4OC(C)(C)OC25OC[C@]2([C@@H](n6cc(-c7ccccc7)nn6)C=CC(C)(C)[C@H]2[C@@H]5O)[C@@H]3CC[C@@H]14` [CYD-7-86], for which the results for the IC50 in the assay on MCF-7 (setting [9]) and in the assay with MDA-MB-231 (setting [10]) were 0.38 µM and 0.48 µM, respectively.
